# Measured values: patent publication US8604087B2, “Composition for treating or preventing amyloid-related diseases comprising 4-O-methylhonokiol” (priority 2008, dated 2013)
# Columns and labels:
# acetylcholinesterase [1] = biological target: acetylcholinesterase (Homo sapiens, UniProt P22303); test: Inhibition of acetylcholinesterase activity by honokiol and 4-O-methylhonokiol (modified Ellman's method); assay type: biochemical; settings: for IC50: 5 minutes of reaction at 25° C., pH 8.0; for inhibition at 0.01 µM: concentration 10 nM; for inhibition at 0.1 µM: concentration 100 nM
# acetylcholinesterase, sequence (P22303 32-614, species assumed): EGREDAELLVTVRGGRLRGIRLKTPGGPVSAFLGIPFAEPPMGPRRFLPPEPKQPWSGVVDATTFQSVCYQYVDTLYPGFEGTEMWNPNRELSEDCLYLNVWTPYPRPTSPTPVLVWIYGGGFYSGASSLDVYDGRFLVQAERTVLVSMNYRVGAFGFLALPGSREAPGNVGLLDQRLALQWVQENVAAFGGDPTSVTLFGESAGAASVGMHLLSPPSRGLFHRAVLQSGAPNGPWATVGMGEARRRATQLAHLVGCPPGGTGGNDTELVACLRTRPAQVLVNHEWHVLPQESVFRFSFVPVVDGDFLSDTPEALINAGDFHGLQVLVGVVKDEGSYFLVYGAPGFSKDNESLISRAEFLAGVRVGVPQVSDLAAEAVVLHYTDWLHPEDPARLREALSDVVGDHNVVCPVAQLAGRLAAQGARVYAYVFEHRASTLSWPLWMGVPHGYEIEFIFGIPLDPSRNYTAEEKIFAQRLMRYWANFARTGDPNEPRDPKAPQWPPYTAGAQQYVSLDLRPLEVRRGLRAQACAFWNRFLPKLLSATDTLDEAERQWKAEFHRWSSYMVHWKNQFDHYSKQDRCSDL
# Method: Acetylcholinesterase activity was analyzed by the modified Ellman's method [Ellman G. L., et al., Biochem. Pharmacol. 7, 88-95, 1961]. After adding 50 mM phosphate buffer (30 μL, pH 8.0) to a 96-well plate, different concentrations of 4-O-methylhonokiol or honokiol was added, 10 μL per well, and acetylcholinesterase was added, 10 μL per well. Then, 50 mM phosphate buffer (50 μL, pH 8.0) containing 0.5 mM acetylthiocholine iodide and 1 mM 5,5′-dithiobis(2-nitrobenzoic acid) was added as a substrate for the enzyme. After 5 minutes of reaction at 25° C., absorbance was measured at 412 nm. The inhibition of acetylcholinesterase activity was calculated by the following equation. Measurement was made 3 times. Inhibition of acetylcholinesterase activity (%)=[…]
# ODb: absorbance of untreated reaction solution at 412 nm;
# ODs: absorbance of treated reaction solution at 412 nm; and
# ODc: absorbance of control at 412 nm.
# Acetylcholinesterase [2] = biological target: T1, Acetylcholinesterase (Mus musculus, UniProt P21836); test: Acetylcholinesterase activity in mouse brain cortex and hippocampus after the behavioral experiments (modified Ellman's method); assay type: in vivo; set-up: Enzyme activity: unit not given beside the values; settings: for Improvement: enzyme activity
# T1 construct: the brain cortex and hippocampus were separated from the brain of the mouse, homogenized with RO-PREP protein extraction solution; from tissue; host or cells: mouse brain cortex and hippocampus
# T1 sequence (P21836 32-614): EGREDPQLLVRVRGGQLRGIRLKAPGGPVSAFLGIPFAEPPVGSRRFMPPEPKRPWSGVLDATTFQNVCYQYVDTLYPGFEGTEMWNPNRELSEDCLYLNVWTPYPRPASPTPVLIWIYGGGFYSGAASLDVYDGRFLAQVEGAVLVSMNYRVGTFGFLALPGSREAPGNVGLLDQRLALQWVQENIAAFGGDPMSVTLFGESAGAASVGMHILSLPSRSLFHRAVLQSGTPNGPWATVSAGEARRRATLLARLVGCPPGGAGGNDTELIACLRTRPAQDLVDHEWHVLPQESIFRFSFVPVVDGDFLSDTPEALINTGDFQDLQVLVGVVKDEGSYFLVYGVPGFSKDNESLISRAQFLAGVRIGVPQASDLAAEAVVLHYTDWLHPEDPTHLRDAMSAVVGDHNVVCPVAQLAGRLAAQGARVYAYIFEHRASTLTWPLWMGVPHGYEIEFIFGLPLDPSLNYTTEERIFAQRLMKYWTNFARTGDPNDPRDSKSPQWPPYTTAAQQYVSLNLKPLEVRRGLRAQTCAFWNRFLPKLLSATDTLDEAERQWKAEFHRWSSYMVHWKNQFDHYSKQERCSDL
# Method: (§1) After the behavioral pharmacological experiments, the brain cortex and hippocampus were separated from the brain of the mouse, homogenized with RO-PREP protein extraction solution (iNtRON Biotechnology), and centrifuged at 4° C., at 15,000 rpm, for 2 hours. The protein quantity of the supernatant was analyzed with a Bio-Rad protein analysis kit (Bio-Rad). Acetylcholinesterase activity was analyzed by the modified Ellman's method.
# Cell lysate was put in a 96-well plate, 10 μL per well. After adding reaction buffer [190 μL, 0.01% DTNB, 0.02% acetylthiocholine and 0.1 mM isoOMPA in 50 mM Tris-HCl (pH 8.0, 0.1 M NaCl, 20 mM MgCl2)], measurement was made at 37° C., at 405 nm, for 5 minutes. After 10 minutes of reaction, measurement was made again at the same wavelength. After adding different concentrations of acetylcholinesterase and treating with standard buffer [0.01% DTNB and 0.02% 0.1 mM isoOMPA in 50 mM Tris-HCl (pH 8.0, 0.1 M NaCl, 20 mM MgCl2)], measurement was made at 37° C., at 405 nm, for 5 minutes. Activity was calculated from the difference of absorbance at the first and second measurements.
# Amyloid-β 1-42 = test: Inhibition of amyloid-β 1-42 production in mouse brain cortex and hippocampus (amyloid beta 1-42 assay kit); assay type: in vivo; settings: for Improvement: production amount
# Method: as §1, with “solution,” for “solution (iNtRON Biotechnology),”, “Amyloid-β 1-42 were quantitated using an amyloid beta 1-42 assay kit (Immuno-Biological, Japan).” for “Acetylcholinesterase activity was analyzed by the modified Ellman's method.”
# The protein extract (100 μL) obtained from the brain cortex or hippocampus was put in a coated 96-well plate and incubated at 4° C. overnight. After washing with washing buffer and adding labeled antibody solution, the mixture was incubated at 4° C. for 1 hour in the dark. After washing again and adding chromogen, the mixture was incubated at room temperature for 30 minutes in the dark. Then, after adding stop solution, absorbance was measured at 450 nm. Measurement was made 3 times.
# [3] = system: scopolamine-induced impairment of memory of mice; test: Passive avoidance test for evaluating explicit memory; assay type: in vivo; settings: for Improvement: step-through latency
# Method: In order to test the effect of 4-O-methylhonokiol on the scopolamine-induced impairment of memory of mice, experiment was performed as follows based on the passive avoidance test animal model described in the literature [Korea Health Research Association, Guidelines for the Testing of Functional Health Foods, 663-701, 2004; Rho et al., Biol. Pharm. Bull., 2005].
# A passive avoidance instrument consisting of two chambers separated by a guillotine door was used as the experimental apparatus. One chamber was an illuminated chamber made of transparent acryl boards (30×30×30 cm) and the other was a dark chamber made of black acryl boards (same dimensions). The floor of the dark chamber was equipped with a grid made of aluminum pieces separated by a regular spacing. The grid was connected to an apparatus for delivering electric shocks to the feet of the test animal. A mouse was put into the illuminated chamber and the guillotine door was opened so that the mouse could enter the dark chamber. The acquisition trials were repeated 3 times. On the third run, immediately after the mouse entered the dark chamber, an electric shock was delivered through the aluminum grid (0.1 mA, 5 seconds). Memory test was performed 24 hours after the acquisition trials. The mouse was put into the illuminated chamber, the guillotine door was opened, and the time taken for the mouse to enter the dark chamber was measured (step-through latency). A longer time means better learning ability and memory. 10 mice were tested for each group.
# [4] = system: scopolamine-induced impairment of learning ability of mice; test: Water maze test for evaluating spatial learning ability; assay type: in vivo, male ICR mice; settings: for Improvement: escape distance
# Method: In order to test the effect of 4-O-methylhonokiol on the scopolamine-induced impairment of learning ability of mice, experiment was performed as follows based on the water maze test animal model described in the literature [Korea Health Research Association, Guidelines for the Testing of Functional Health Foods, 663-701, 2004; Widy-Tyszkiewicz et al., Biol. Pharm. Bull., 2002]. 5-6 weeks old male ICR mice (20-28 g; Dae Han Biolink, Korea) were raised under controlled lighting (12-hour light-dark cycle) and temperature (22±2° C.) conditions. They were grouped (n=10) and given free access to food and water, in a cage. The mice were accustomed for a week before performing the test.
# A round pool 180 cm in diameter and 50 cm in height was filled with water (22±3° C.) to 30 cm in depth. A transparent acryl resin platform (diameter 12 cm) was placed 1.5 cm below the surface of the water. The mice were trained for 6 days, 180 seconds a day (acquisition test). On day 7, retention test was carried out. The mice were forced to swim for 60 seconds by removing the platform. All the behaviors of the mice were recorded using a video camera. Time and distance were measured until the mice climbed onto the platform.
# 4-O-methylhonokiol (0.5, 1 and 1.5 mg/kg) was dissolved in drinking water and orally administered to the mice, for a week. The comparison group was treated with scopolamine only, and the control group was not treated with any substance.
# [5] = brain cortex, scopolamine 1 mg/kg + 4-O-methylhonokiol 0.5 mg/kg
# [6] = brain cortex, scopolamine 1 mg/kg + 4-O-methylhonokiol 1 mg/kg
# [7] = brain cortex, scopolamine 1 mg/kg + 4-O-methylhonokiol 1.5 mg/kg
# [8] = hippocampus, scopolamine 1 mg/kg + 4-O-methylhonokiol 0.5 mg/kg
# [9] = hippocampus, scopolamine 1 mg/kg + 4-O-methylhonokiol 1 mg/kg
# [10] = hippocampus, scopolamine 1 mg/kg + 4-O-methylhonokiol 1.5 mg/kg
# [11] = scopolamine 1 mg/kg + 4-O-methylhonokiol 0.5 mg/kg
# [12] = scopolamine 1 mg/kg + 4-O-methylhonokiol 1 mg/kg
# [13] = scopolamine 1 mg/kg + 4-O-methylhonokiol 1.5 mg/kg
compound,measurement,setting,value
C=CCc1ccc(O)c(-c2ccc(OC)c(CC=C)c2)c1 [4-O-methylhonokiol],IC50,acetylcholinesterase [1],1.2 nM
same,inhibition at 0.001 µM,acetylcholinesterase [1]; concentration 1 nM,47%
same,inhibition at 0.01 µM,acetylcholinesterase [1],68%
same,inhibition at 0.1 µM,acetylcholinesterase [1],78%
same,times better inhibition ability of acetylcholinesterase activity than honokiol,acetylcholinesterase [1]; ratio of IC50 values,about 200 times
same,Enzyme activity,Acetylcholinesterase [2]; [5],30.2
same,Enzyme activity,Acetylcholinesterase [2]; [6],24.1
same,Enzyme activity,Acetylcholinesterase [2]; [7],19.1
same,Improvement,Acetylcholinesterase [2]; [5],42.8%
same,Improvement,Acetylcholinesterase [2]; [6],70.3%
same,Improvement,Acetylcholinesterase [2]; [7],92.8%
same,Improvement,Acetylcholinesterase [2]; [8],72.7%
same,Improvement,Acetylcholinesterase [2]; [9],93.2%
same,Improvement,Acetylcholinesterase [2]; [10],97.7%
same,Enzyme activity,Acetylcholinesterase [2]; [8],14.1
same,Enzyme activity,Acetylcholinesterase [2]; [9],13.2
same,Enzyme activity,Acetylcholinesterase [2]; [10],13
same,Production amount,"Amyloid-β 1-42; amyloid-β 1-42, brain cortex, β-amyloid 1 mg/kg + 4-O-methylhonokiol 0.5 mg/kg",26.8
same,Production amount,"Amyloid-β 1-42; amyloid-β 1-42, brain cortex, β-amyloid 1 mg/kg + 4-O-methylhonokiol 1 mg/kg",24.3
same,Production amount,"Amyloid-β 1-42; amyloid-β 1-42, brain cortex, β-amyloid 1 mg/kg + 4-O-methylhonokiol 1.5 mg/kg",23.1
same,Production amount,"Amyloid-β 1-42; amyloid-β 1-42, hippocampus, β-amyloid 1 mg/kg + 4-O-methylhonokiol 0.5 mg/kg",22.7
same,Production amount,"Amyloid-β 1-42; amyloid-β 1-42, hippocampus, β-amyloid 1 mg/kg + 4-O-methylhonokiol 1 mg/kg",18.2
same,Production amount,"Amyloid-β 1-42; amyloid-β 1-42, hippocampus, β-amyloid 1 mg/kg + 4-O-methylhonokiol 1.5 mg/kg",16.5
same,Improvement,"Amyloid-β 1-42; brain cortex, β-amyloid 1 mg/kg + 4-O-methylhonokiol 0.5 mg/kg",28.3%
same,Improvement,"Amyloid-β 1-42; brain cortex, β-amyloid 1 mg/kg + 4-O-methylhonokiol 1 mg/kg",82.6%
same,Improvement,"Amyloid-β 1-42; brain cortex, β-amyloid 1 mg/kg + 4-O-methylhonokiol 1.5 mg/kg",100%
same,Improvement,"Amyloid-β 1-42; hippocampus, β-amyloid 1 mg/kg + 4-O-methylhonokiol 0.5 mg/kg",33.3%
same,Improvement,"Amyloid-β 1-42; hippocampus, β-amyloid 1 mg/kg + 4-O-methylhonokiol 1 mg/kg",77.8%
same,Improvement,"Amyloid-β 1-42; hippocampus, β-amyloid 1 mg/kg + 4-O-methylhonokiol 1.5 mg/kg",95.6%
same,Step-through latency,"[3]; scopolamine 1 mg/kg + 4-O-methylhonokiol 0.5 mg/kg, 24 hours after acquisition trials",21.9 s
same,Step-through latency,"[3]; scopolamine 1 mg/kg + 4-O-methylhonokiol 1 mg/kg, 24 hours after acquisition trials",28.3 s
same,Step-through latency,"[3]; scopolamine 1 mg/kg + 4-O-methylhonokiol 1.5 mg/kg, 24 hours after acquisition trials",33.5 s
same,Improvement,[3]; [11],37.1%
same,Improvement,[3]; [12],70%
same,Improvement,[3]; [13],95%
same,Improvement,[4]; [11],48.8%
same,Improvement,[4]; [12],88.6%
same,Improvement,[4]; [13],91.8%
same,Escape distance,"[4]; scopolamine 1 mg/kg + 4-O-methylhonokiol 0.5 mg/kg oral in drinking water for a week, mice",566 cm
same,Escape distance,"[4]; scopolamine 1 mg/kg + 4-O-methylhonokiol 1 mg/kg oral in drinking water for a week, mice",305 cm
same,Escape distance,"[4]; scopolamine 1 mg/kg + 4-O-methylhonokiol 1.5 mg/kg oral in drinking water for a week, mice",284 cm
C=CCc1ccc(O)c(-c2ccc(O)c(CC=C)c2)c1 [Honokiol],IC50,acetylcholinesterase [1],250 nM
same,inhibition at 0.01 µM,acetylcholinesterase [1],17%
same,inhibition at 0.1 µM,acetylcholinesterase [1],43%
same,inhibition at 1 µM,acetylcholinesterase [1]; concentration 1000 nM,74%
"CN1[C@@H]2C[C@@H](OC(=O)[C@H](CO)c3ccccc3)C[C@H]1[C@@H]1O[C@@H]12 [scopolamine, Scopolamine, reference compound]",Step-through latency,"[3]; comparison group, scopolamine 1 mg/kg only (control group 34.3)",14.6 s
same,Escape distance,"[4]; comparison group, scopolamine 1 mg/kg only (control group 232)",884 cm
β-amyloid [reference compound],Production amount,"Amyloid-β 1-42; amyloid-β 1-42, brain cortex, comparison group, β-amyloid 1 mg/kg only (control group 23.5)",28.1
same,Production amount,"Amyloid-β 1-42; amyloid-β 1-42, hippocampus, comparison group, β-amyloid 1 mg/kg only (control group 16.2)",25.1
